Paper PMC10827794 (2024)
Each block holds one compound with its values, some of them ahead of it.

Columns and labels:
[1] = system: WT_14.2 (Oligo 14.2) (DNA, G4) ATAGAGAGTGATGGGGAGGGGGTGAGTGGAGGGTCAAGGAAGGCCCTCCCTGAGGTGGTGTTATTTGACGGGGGTCCACA; assay: fluorescent intercalator displacement (G4-FID); conditions: TO displaced; ligand 0-2.5 μM
[2] = system: WT_5.3 (Oligo 5.3) (DNA, G4) CGGCCAGCCTGCCCGTGGGGGGGCCAGGGGAAGCCGCCCGTCTGGGACGTGGGGTCCCCA; assay: fluorescent intercalator displacement (G4-FID); conditions: TO displaced; ligand 0-2.5 μM
[3] = system: WT_8.1 (Oligo 8.1) (DNA, G4) CTGCCTGACAAGGGCTAGGGGGAGATCTGTGTTGGGTGACCAGGGCCATA; assay: fluorescent intercalator displacement (G4-FID); conditions: TO displaced; ligand 0-2.5 μM
[4] = system: Template_5.2 with 5.2 primer (DNA, G4) CCGCGCGGTGAGTCTAGGGCCTGGCACGACCCCTCTAGGGCGGCGTAATGTCCAGACCCA/CGTGGGTCTGGACAT; assay: polymerase stop (primer extension); conditions: KCl, 1 mM MgCl2; 40 mM Tris-HCl pH 8.0, 40 °C; ligand 0-20 μM; truncated products
[5] = system: WT_5.1 (Oligo 5.1) (DNA, G4) TAGAGGACAGCGGGGAAGGCGGGCGGTGGGGCAGGGGGCCTGAAGCGGCGGTACCGGTGCTGGCGGCGGCAGCTGAGGCC; assay: fluorescent intercalator displacement (G4-FID); conditions: TO displaced; ligand 0-2.5 μM
[6] = system: WT_14.1 (Oligo 14.1) (DNA, G4) AAAGGGAAGTATGGCTGGTGTACCGGGAGCAAGGGAGAGGGAAGGAGGGGCCAAATTAATAGGCCCACGGT; assay: fluorescent intercalator displacement (G4-FID); conditions: TO displaced; ligand 0-2.5 μM
[7] = system: WT_5.2 (Oligo 5.2) (DNA, G4) CCGCGCGGTGAGTCTAGGGCCTGGCACGACCCCTCTAGGGCGGCGTAATGTCCAGACCCA; assay: fluorescent intercalator displacement (G4-FID); conditions: TO displaced; ligand 0-2.5 μM
[8] = system: Template_8.1 with 8.1 primer (DNA, G4) CTGCCTGACAAGGGCTAGGGGGAGATCTGTGTTGGGTGACCAGGGCCATAAGTAAATTTCATCATACT/AGTATGATGAAATTTACTTATGG; assay: polymerase stop (primer extension); conditions: KCl, 1 mM MgCl2; 40 mM Tris-HCl pH 8.0, 40 °C; ligand 0-20 μM; truncated products
[9] = system: WT_14.2 (Oligo 14.2) (DNA, G4) ATAGAGAGTGATGGGGAGGGGGTGAGTGGAGGGTCAAGGAAGGCCCTCCCTGAGGTGGTGTTATTTGACGGGGGTCCACA; assay: fluorescence enhancement; conditions: 1 μM DNA, 2 μM TO
[10] = system: WT_40.1 (Oligo 40.1) (DNA, G4) GGGGGCGGGGGCGGGGGTGGGGGGAAGAAAAATTCCTAGCTGTAGCTGACTGCA; assay: fluorescence enhancement; conditions: 10 mM Tris-Cl pH 7.5, 25 °C, 1 μM DNA, 2 μM TO
[11] = system: WT_5.1 (Oligo 5.1) (DNA, G4) TAGAGGACAGCGGGGAAGGCGGGCGGTGGGGCAGGGGGCCTGAAGCGGCGGTACCGGTGCTGGCGGCGGCAGCTGAGGCC; assay: fluorescence enhancement; conditions: 1 μM DNA, 2 μM TO
[12] = system: WT_14.1 (Oligo 14.1) (DNA, G4) AAAGGGAAGTATGGCTGGTGTACCGGGAGCAAGGGAGAGGGAAGGAGGGGCCAAATTAATAGGCCCACGGT; assay: fluorescence enhancement; conditions: 1 μM DNA, 2 μM TO
[13] = system: WT_5.1R (RNA, G4) GCGAAAGGGGAAGGCGGGCGGUGGGGCAGGGGGCCUGAAGCGGCCUAGCUGUAGCUGACUGCA; assay: fluorescence enhancement; conditions: no added monovalent cation; 10 mM Tris-Cl pH 7.5, 0.01 mM EDTA, 25 °C; 2 μM RNA, 2 μM ThT; ~160-fold enhancement

DC50 [1]: 0.6296 µM
DC50 [2]: 0.9563 µM
DC50 [3]: 0.4791 µM
binding [4]: yes
DC50 [5]: 0.8800 µM
DC50 [6]: 0.8977 µM
DC50 [7]: 1.039 µM
binding [8]: yes
Compound: C[n+]1ccc(-c2c3nc(c(-c4cc[n+](C)cc4)c4ccc([nH]4)c(-c4cc[n+](C)cc4)c4nc(c(-c5cc[n+](C)cc5)c5ccc2[nH]5)C=C4)C=C3)cc1

binding [9]: yes
binding ([10]; 100 mM KCl, enhancement lower than without K+): yes
binding ([10]; no added monovalent cation, ~330-fold enhancement): yes
binding [11]: yes
binding [12]: yes
Compound: CN1C(=Cc2cc[n+](C)c3ccccc23)Sc2ccccc21

binding [13]: yes
Compound: Cc1ccc2c(c1)sc(-c1ccc(N(C)C)cc1)[n+]2C
